# Reference: US4436751A, “Nitrobenzyl monates antibacterial compounds” (Beecham Group Limited, priority 1980, dated 1984)
# Where two headings read alike, the source gives them in different places.
# Experiments:
# Assay type in all cases: cell-based
# [1] = tested on: M. suipneumoniae LABER; test: Anti-mycoplasmal MIC in vitro, Friis broth agarose (Table 1); conditions: Mesomycoplasma hyopneumoniae, 144 h
# [2] = tested on: M. hyorhinis ATCC 23234; test: as above; conditions: Mesomycoplasma hyorhinis, ATCC23234, 144 h
# [3] = tested on: M. gallisepticum S6; test: as above; conditions: Mycoplasmoides gallisepticum
# [4] = tested on: Bord. bronchiseptica BO8; test: Veterinary bacteria MIC, Diagnostic Sensitivity Test Agar (Table 2); conditions: Bordetella bronchiseptica
# Experimental: (§1) The values were determined using a two fold serial dilutions in Diagnostic Sensitivity Test Agar with an inoculum of 10^4 organisms and incubation for 18 hours at 37° C.
# [5] = tested on: Bord. bronchiseptica BO9; test: as above; conditions: Bordetella bronchiseptica
# Experimental: as §1
# [6] = tested on: E. Coli E1; test: as above; conditions: Escherichia coli
# Experimental: as §1
# [7] = tested on: E. Coli NCTC 10418; test: as above; conditions: Escherichia coli
# Experimental: as §1
# [8] = tested on: Past. multocida PA2; test: as above; conditions: Pasteurella multocida
# Experimental: as §1
# [9] = tested on: S. dublin S7; test: as above; conditions: Salmonella enterica
# Experimental: as §1
# [10] = tested on: Staph. aureus B4; test: as above; conditions: Staphylococcus aureus
# Experimental: as §1
# [11] = tested on: Staph. aureus Oxford; test: as above; conditions: Staphylococcus aureus
# Experimental: as §1
# [12] = tested on: Strep. dylgalactiae SPD1; test: as above
# Experimental: as §1
# [13] = tested on: Strep. suis (group D) SPS11; test: as above; conditions: Streptococcus suis
# Experimental: as §1
# [14] = tested on: Strep. uberis SPO1; test: as above; conditions: Streptococcus uberis
# Experimental: as §1
# [15] = tested on: Bacillus subtilis 6633; test: Human bacteria MIC, nutrient agar with chocolated horse blood (Table 3)
# Experimental: (§2) The values were determined by serial dilutions in nutrient agar with 5% chocolated horse blood after incubations for 18 hours at 37° C.
# [16] = tested on: Corynebacterium xerosis 9755; test: as above
# Experimental: as §2
# [17] = tested on: E. Coli NCTC 10418; test: as above; conditions: Escherichia coli
# Experimental: as §2
# [18] = tested on: Haemophilus influenzae Q1; test: as above
# Experimental: as §2
# [19] = tested on: K. aerogenes A; test: as above; conditions: Klebsiella aerogenes
# Experimental: as §2
# [20] = tested on: P. mirabilis 889; test: as above
# Experimental: as §2
# [21] = tested on: Pasteurella multocida 1633; test: as above
# Experimental: as §2
# [22] = tested on: Ps. aeruginosa NCTC 10662; test: as above; conditions: Pseudomonas aeruginosa
# Experimental: as §2
# [23] = tested on: Sarcina lutea 8340; test: as above
# Experimental: as §2
# [24] = tested on: Staph. aureus Oxford; test: as above; conditions: Staphylococcus aureus
# Experimental: as §2
# [25] = tested on: Staph. aureus Russell; test: as above; conditions: Staphylococcus aureus
# Experimental: as §2
# [26] = tested on: Staph. aureus W2827; test: as above; conditions: Staphylococcus aureus
# Experimental: as §2
# [27] = tested on: Strep. faecalis 1; test: as above
# Experimental: as §2
# [28] = tested on: Strep. pyogenes R80/421-A; test: as above; conditions: Streptococcus pyogenes
# Experimental: as §2
# [29] = Bord. bronchiseptica BO8, DST Agar, 10^4 organisms, 18 hours 37° C., read-out: MIC
# [30] = Bord. bronchiseptica BO9, DST Agar, 10^4 organisms, 18 hours 37° C., read-out: MIC
# [31] = E. Coli E1, DST Agar, 10^4 organisms, 18 hours 37° C., read-out: MIC
# [32] = NCTC10418, E. Coli NCTC 10418, DST Agar, 10^4 organisms, 18 hours 37° C., read-out: MIC
# [33] = Past. multocida PA2, DST Agar, 10^4 organisms, 18 hours 37° C., read-out: MIC
# [34] = S. dublin S7, DST Agar, 10^4 organisms, 18 hours 37° C., read-out: MIC
# [35] = Staph. aureus B4, DST Agar, 10^4 organisms, 18 hours 37° C., read-out: MIC
# [36] = Staph. aureus Oxford, DST Agar, 10^4 organisms, 18 hours 37° C., read-out: MIC
# [37] = Strep. dylgalactiae SPD1, DST Agar, 10^4 organisms, 18 hours 37° C., read-out: MIC
# [38] = Strep. suis (group D) SPS11, DST Agar, 10^4 organisms, 18 hours 37° C., read-out: MIC
# [39] = Strep. uberis SPO1, DST Agar, 10^4 organisms, 18 hours 37° C., read-out: MIC
# [40] = Bacillus subtilis 6633, nutrient agar 5% chocolated horse blood, 18 hours 37° C., read-out: MIC
# [41] = Corynebacterium xerosis 9755, nutrient agar 5% chocolated horse blood, 18 hours 37° C., read-out: MIC
# [42] = NCTC10418, E. coli NCTC 10418, nutrient agar 5% chocolated horse blood, 18 hours 37° C., read-out: MIC
# [43] = Haemophilus influenzae Q1, nutrient agar 5% chocolated horse blood, 18 hours 37° C., read-out: MIC
# [44] = K. aerogenes A, nutrient agar 5% chocolated horse blood, 18 hours 37° C., read-out: MIC
# [45] = Proteus mirabilis, P. mirabilis 889, nutrient agar 5% chocolated horse blood, 18 hours 37° C., read-out: MIC
# [46] = Pasteurella multocida 1633, nutrient agar 5% chocolated horse blood, 18 hours 37° C., read-out: MIC
# [47] = NCTC10662, Ps. aeruginosa NCTC 10662, nutrient agar 5% chocolated horse blood, 18 hours 37° C., read-out: MIC
# [48] = Micrococcus luteus, Sarcina lutea 8340, nutrient agar 5% chocolated horse blood, 18 hours 37° C., read-out: MIC
# [49] = Staph. aureus Oxford, nutrient agar 5% chocolated horse blood, 18 hours 37° C., read-out: MIC
# [50] = Staph. aureus Russell, nutrient agar 5% chocolated horse blood, 18 hours 37° C., read-out: MIC
# [51] = Enterococcus faecalis, Strep. faecalis 1, nutrient agar 5% chocolated horse blood, 18 hours 37° C., read-out: MIC
# [52] = Strep. pyogenes R80/421-A, nutrient agar 5% chocolated horse blood, 18 hours 37° C., read-out: MIC
# [53] = Corynebacterium xerosis, 9755, 18 h
# [54] = Haemophilus influenzae, Q1, 18 h
# [55] = Pasteurella multocida, 1633, 18 h
smiles,measurement,setting,value
"C/C(=C\C(=O)OC(C)c1ccc([N+](=O)[O-])cc1)CC1OCC(CC2OC2C(C)C(C)O)C(O)C1O (stereo not shown) [Example 4, 1-(p-nitrophenyl)ethyl monate A]",MIC,[1],1 µg/mL
same,MIC,[2],0.5 µg/mL
same,MIC,"[3]; 144 h, M. gallisepticum S6, in vitro, 6 days 37° C., read-out: MIC",> 10 µg/mL
same,MIC,[4]; [29],> 80 µg/mL
same,MIC,[5]; [30],5 µg/mL
same,MIC,[6]; [31],> 80 µg/mL
same,MIC,[7]; [32],> 80 µg/mL
same,MIC,[8]; [33],2.5 µg/mL
same,MIC,[9]; [34],> 80 µg/mL
same,MIC,[10]; [35],2.5 µg/mL
same,MIC,[11]; [36],1.25 µg/mL
same,MIC,[12]; [37],0.625 µg/mL
same,MIC,[13]; [38],20 µg/mL
same,MIC,[14]; [39],0.312 µg/mL
same,MIC,[15]; [40],1 µg/mL
same,MIC,[16]; [41],> 100 µg/mL
same,MIC,[17]; [42],> 100 µg/mL
same,MIC,[18]; [43],1 µg/mL
same,MIC,[19]; [44],> 100 µg/mL
same,MIC,[20]; [45],> 100 µg/mL
same,MIC,[21]; [46],10 µg/mL
same,MIC,[22]; [47],> 100 µg/mL
same,MIC,[23]; [48],> 100 µg/mL
same,MIC,[24]; [49],2.5 µg/mL
same,MIC,[25]; [50],2.5 µg/mL
same,MIC,"[26]; Staph. aureus W2827, nutrient agar 5% chocolated horse blood, 18 hours 37° C., read-out: MIC",2.5 µg/mL
same,MIC,[27]; [51],> 100 µg/mL
same,MIC,[28]; [52],1 µg/mL
"C/C(=C\C(=O)OCc1cccc([N+](=O)[O-])c1)CC1OCC(C/C=C/C(C)C(C)O)C(O)C1O (stereo not shown) [Example 5, m-nitrobenzyl monate C]",MIC,[1],0.1 µg/mL
same,MIC,[2],0.25 µg/mL
same,MIC,"[3]; S6, 144 h",5 µg/mL
same,MIC,[4]; [29],> 80 µg/mL
same,MIC,[5]; [30],40 µg/mL
same,MIC,[6]; [31],> 80 µg/mL
same,MIC,[7]; [32],> 80 µg/mL
same,MIC,[8]; [33],2.5 µg/mL
same,MIC,[9]; [34],> 80 µg/mL
same,MIC,[10]; [35],2.5 µg/mL
same,MIC,[11]; [36],2.5 µg/mL
same,MIC,[12]; [37],1.25 µg/mL
same,MIC,[13]; [38],80 µg/mL
same,MIC,[14]; [39],0.625 µg/mL
same,MIC,[15]; [40],1 µg/mL
same,MIC,[16]; [41],> 100 µg/mL
same,MIC,[17]; [42],> 100 µg/mL
same,MIC,[18]; [43],1 µg/mL
same,MIC,[19]; [44],> 100 µg/mL
same,MIC,[20]; [45],> 100 µg/mL
same,MIC,[21]; [46],25 µg/mL
same,MIC,[22]; [47],> 100 µg/mL
same,MIC,[23]; [48],> 100 µg/mL
same,MIC,[24]; [49],2.5 µg/mL
same,MIC,[25]; [50],2.5 µg/mL
same,MIC,"[26]; W2827, 18 h",5 µg/mL
same,MIC,[27]; [51],> 100 µg/mL
same,MIC,[28]; [52],1 µg/mL
"C/C(=C\C(=O)OCc1cc([N+](=O)[O-])cc([N+](=O)[O-])c1)CC1OCC(CC2OC2C(C)C(C)O)C(O)C1O (stereo not shown) [Example 6, 3,5-dinitrobenzyl monate A]",MIC,[1],0.025 µg/mL
same,MIC,[2],0.025 µg/mL
same,MIC,"[3]; S6, 144 h",5 µg/mL
same,MIC,"[4]; BO8, 18 h",40 µg/mL
same,MIC,"[5]; BO9, 18 h",10 µg/mL
same,MIC,[6]; 18 h,80 µg/mL
same,MIC,"[7]; NCTC10418, 18 h",80 µg/mL
same,MIC,"[8]; PA2, 18 h",0.625 µg/mL
same,MIC,"[9]; S7, 18 h",> 80 µg/mL
same,MIC,"[10]; B4, 18 h",0.312 µg/mL
same,MIC,[11]; 18 h,0.312 µg/mL
same,MIC,[12]; 18 h,0.312 µg/mL
same,MIC,[13]; 18 h,20 µg/mL
same,MIC,"[14]; SPO1, 18 h",0.07 µg/mL
same,MIC,"[15]; Bacillus subtilis, 6633, 18 h",0.5 µg/mL
same,MIC,[16]; [53],> 100 µg/mL
same,MIC,"[17]; NCTC10418, 18 h",100 µg/mL
same,MIC,[18]; [54],0.5 µg/mL
same,MIC,[19]; 18 h,100 µg/mL
same,MIC,"[20]; Proteus mirabilis, 889, 18 h",100 µg/mL
same,MIC,[21]; [55],0.5 µg/mL
same,MIC,"[22]; NCTC10662, 18 h",> 100 µg/mL
same,MIC,"[23]; Micrococcus luteus, 8340, 18 h",> 100 µg/mL
same,MIC,[24]; 18 h,0.5 µg/mL
same,MIC,[25]; 18 h,1 µg/mL
same,MIC,"[26]; W2827, 18 h",1 µg/mL
same,MIC,"[27]; Enterococcus faecalis, 1, 18 h",> 100 µg/mL
same,MIC,"[28]; R80/421A, 18 h",0.25 µg/mL
"C/C(=C\C(=O)OCc1cc([N+](=O)[O-])cc([N+](=O)[O-])c1C)CC1OCC(CC2OC2C(C)C(C)O)C(O)C1O (stereo not shown) [Example 7, 3,5-dinitro-2-methylbenzyl monate A]",MIC,[1],0.1 µg/mL
same,MIC,[2],0.1 µg/mL
same,MIC,"[3]; S6, 144 h",2.5 µg/mL
same,MIC,"[4]; BO8, 18 h",40 µg/mL
same,MIC,"[5]; BO9, 18 h",10 µg/mL
same,MIC,[6]; 18 h,> 80 µg/mL
same,MIC,"[7]; NCTC10418, 18 h",> 80 µg/mL
same,MIC,"[8]; PA2, 18 h",1.25 µg/mL
same,MIC,"[9]; S7, 18 h",> 80 µg/mL
same,MIC,"[10]; B4, 18 h",0.625 µg/mL
same,MIC,[11]; 18 h,0.625 µg/mL
same,MIC,[12]; 18 h,0.625 µg/mL
same,MIC,[13]; 18 h,10 µg/mL
same,MIC,"[14]; SPO1, 18 h",0.156 µg/mL
same,MIC,"[15]; Bacillus subtilis, 6633, 18 h",1 µg/mL
same,MIC,[16]; [53],> 100 µg/mL
same,MIC,"[17]; NCTC10418, 18 h",> 100 µg/mL
same,MIC,[18]; [54],1 µg/mL
same,MIC,[19]; 18 h,> 100 µg/mL
same,MIC,"[20]; Proteus mirabilis, 889, 18 h",> 100 µg/mL
same,MIC,[21]; [55],5 µg/mL
same,MIC,"[22]; NCTC10662, 18 h",> 100 µg/mL
same,MIC,"[23]; Micrococcus luteus, 8340, 18 h",> 100 µg/mL
same,MIC,[24]; 18 h,1 µg/mL
same,MIC,[25]; 18 h,1 µg/mL
same,MIC,"[26]; W2827, 18 h",2.5 µg/mL
same,MIC,"[27]; Enterococcus faecalis, 1, 18 h",> 100 µg/mL
same,MIC,"[28]; R80/421A, 18 h",0.25 µg/mL
